Measurements as given in patent US20080241274A1 (ZIOPHARM Oncology, Inc., priority 2006, published 2008).
Read-outs that look alike come from different tables or passages of the source.

What was measured:
[1] = test system: purified calf brain tubulin; assay: Tubulin polymerization, calf brain tubulin; type: biochemical, bovine; conditions: FIG. 9, read-out: IC50 of inhibition of tubulin polymerization
From the text: (§1) Tubulin from neuronal tissue is post-translationally modified and the degree of modification increases during neuronal development. Calf brain neuronal tubulin and tubulin from other tissues differ in their post-translational modifications from that of adult bovine brain. […] Tubulin polymerization is given as % over DMSO control.

[2] = test system: axonal microtubules of rat pheochromocytoma (PC12) cells; assay: Axonal microtubule immunostaining in NGF-differentiated PC12 cells; type: cell-based; conditions: PC12 neurites induced by NGF 5-6 days; 24 h treatment at 2×IC50 concentration
From the text: The outgrowth of neurites of PCl2 was induced by NGF for 5-6 days. […] Microtubules within the neurites, were visualized by immunostaining with an antibody recognizing acetylated (axonal) tubulin, leaving the cell bodies unstained.

A549 NSCLC = assay: Monolayer assay (DNA content by propidium iodide), single agents and indibulin combinations, A549; type: cell-based, human; conditions: for IC50: Homo sapiens
Experimental: (§2) The monolayer assay determines the in vitro antitumor activity of test compounds and their capacity to inhibit survival and proliferation of established tumor cell lines. These effects can be determined by establishing the number of viable cells based on measuring the DNA content using propidium iodide. […] Between 5,000 and 10,000 cells were seeded in 96 well plates on Day 0 and the compounds were added 1 day later and incubated for 4 days. The activity was assessed by their IC50 and IC70 values.
(§3) Growth IC50 and IC70 values (Table 2) were determined using XLfit software package, and used to set the concentration ranges and drug ratios for the synergy detection part of the study.
(§4) Chou-Talalay median effect method was used to quantitatively characterize drug-drug interaction [Chou T. C. Theoretical basis, experimental design, and computerized simulation of synergism and antagonism in drug combination studies. Pharmacol Rev. 2006 September; 58(3):621-81]. […] Mixtures of the drugs at multiples of their single agent IC50's were prepared, as well as serial dilutions of the mixture. Additionally, single agent dose response was determined for the same concentration ranges as used for combination study.
(§5) The coefficient of interaction (CI(IC50)) at IC50 and coefficient of interaction under optimal experimental concentrations (CI(e)) were determined using CalcuSyn software package (Table 3, tests were performed in quadruplicate, mean values reported). Commonly, experimental values of CI<0.8 are considered synergistic, 0.8<CI<1.2 additive.

[3] = test system: adult bovine brain tubulin; assay: Tubulin polymerization, adult bovine brain tubulin; type: biochemical; conditions: bovine brain tubulin; at the highest dose tested
From the text: as §1

PC3 (prostate) = assay: Monolayer assay (DNA content by propidium iodide), single agents and indibulin combinations, PC3; type: cell-based, human; conditions: for Combination IC50: PC3, concentration of the named drug in the combination
Experimental: as §2, §3, §4, §5

[4] = test system: human prostate cancer xenograft (PC-3); assay: PC-3 prostate cancer xenograft; type: in vivo; conditions: 180 mg/kg/d, d. 0, 7, 14, at sacrifice of control group animals
From the text: (§6) The significant differences in pharmacodynamics and safety profile of indibulin make it a strong candidate for development as an anti-cancer drug.

[5] = test system: human vulvar squamous cell carcinoma xenograft (A431); assay: A431 vulvar squamous cell carcinoma xenograft; type: in vivo; conditions: 27.5 mg/kg/d, 3×(3× week), at sacrifice of control group animals
From the text: as §6

[6] = test system: MCF-7 ER-positive breast cancer; assay: Monolayer assay (DNA content by propidium iodide), single agents and indibulin combinations, MCF-7; type: cell-based, human
Experimental: as §2, §3, §4, §5

[7] = test system: murine renal cell carcinoma RENCA; assay: Murine renal cell carcinoma RENCA model; type: in vivo, Mouse
Experimental: 1.5×10^6 RENCA cells were injected into the subcapsular space of the kidney through a flank incision (Day 1). […] On Day 21 mice were sacrificed and weight and volume of primary tumors, weight and number of metastases of the lung and metastasis formation in the abdominal lymph nodes determined. […] TNP-470 has shown anti-tumor activity in different animal models and is well established for its use in RENCA.
as §6

[8] = test system: human ovarian xenograft (SK-OV-3); assay: SK-OV-3 ovarian xenograft; type: in vivo; conditions: SKOV-3; 100 mg/kg/d, d. 0, 7, 14; at sacrifice of control group animals
From the text: as §6

[9] = test system: biotin-labeled calf brain tubulin; assay: Competition with 3H-colchicine for tubulin binding (SPA beads); design: species or system bovine; conditions: 200-fold molar excess of cold competitor; FIG. 8
Experimental: Where indicated, a 200-fold molar excess of cold competitor was added. Tubulin heterodimers were then precipitated with streptavidin-coated SPA beads and bound radioactivity was determined. “No tubulin” indicates non-specifically bound radioactivity measured in the absence of biotin-labeled tubulin.

[10] = test system: series of cancer models (RENCA, DMBA, SK-OV-3, PC-3, A431, U 87, MCF-7, A 549); assay: Series of cancer models in animals (overall statement); type: in vivo
From the text: as §6

[11] = test system: un-biotinylated calf brain tubulin; conditions: G. Bacher, Cancer Res. 61, 2001; cited from earlier work
[12] = test system: ovarian cancer with brain metastases; assay: Phase I study, patient with ovarian cancer with brain metastases; type: in vivo, human; conditions: 400 mg BID continuous treatment; after 22 days of treatment; person
From the text: Treatment is ongoing. […] Treatment is ongoing.

[13] = test system: DMBA induced mammary carcinoma; assay: DMBA induced mammary carcinoma in rats; type: in vivo, Rat; conditions: 46.4 mg/kg/d, 2×(3× week), at sacrifice of control group animals
From the text: as §6

[14] = test system: MCF7 breast cancer xenografts; assay: MCF7 breast cancer xenograft; type: in vivo, Human; conditions: 38.3 mg/kg/d, 4×(3× week), at sacrifice of control group animals
From the text: as §6

[15] = A549, single agent (combination study)
[16] = MCF7, indibulin + 5-FU (5FU:indibulin 10.9:1), concentration of the named drug in the combination
[17] = MCF7, indibulin + paclitaxel (paclitaxel:indibulin 0.27:1), concentration of the named drug in the combination
[18] = MCF7, indibulin + tamoxifen (tamoxifen:indibulin 100:1), concentration of the named drug in the combination
[19] = MCF7, indibulin + vinorelbine (vinorelbine:indibulin 0.016:1), concentration of the named drug in the combination

O=C(Nc1ccncc1)C(=O)c1cn(Cc2ccc(Cl)cc2)c2ccccc12 [Indibulin, N-(pyridin-4-yl)-[1-(4-chlorobenzyl)-indol-3-yl]-glyoxylic acid amide]
IC50 [1]: ~250 nM | Effect on axonal microtubules (acetylated tubulin immunostaining) [2]: did not affect axonal microtubules | Single Agent IC40 (A549 NSCLC; [15]): 0.071 µg/mL | Single Agent IC50 (A549 NSCLC; [15]): 0.054 µg/mL | Single Agent IC60 (A549 NSCLC; [15]): 0.129 µg/mL | Single Agent IC70 (A549 NSCLC; [15]): 0.095 µg/mL | Combination IC70 (A549 NSCLC; A549, indibulin + carboplatin (carboplatin:indibulin 303:1), concentration of the named drug in the combination): 0.027 µg/mL | Combination IC40 (A549 NSCLC; A549, indibulin + erlotinib (erlotinib:indibulin 208:1), concentration of the named drug in the combination): 0.021 µg/mL | Combination IC60 (A549 NSCLC; A549, indibulin + etoposide, concentration of the named drug in the combination): 0.068 µg/mL | IC50 (A549 NSCLC; A549, 96 h, A549, single agent, 4 days incubation, read-out: Growth IC50): 0.038 µg/mL | IC50 (A549 NSCLC; A549, A549, single agent (combination study), read-out: Single Agent IC50): 0.092 µg/mL | IC50 (A549 NSCLC; A549, A549, indibulin + carboplatin (carboplatin:indibulin 303:1), concentration of the named drug in the combination, read-out: Combination IC50): 0.011 µg/mL | IC50 (A549 NSCLC; A549, A549, indibulin + erlotinib (erlotinib:indibulin 208:1), concentration of the named drug in the combination, read-out: Combination IC50): 0.03 µg/mL | Inhibition of tubulin polymerization [3]: 25% | IC50 (PC3 (prostate); Homo sapiens, PC3, single agent (combination study), read-out: Single Agent IC50): 0.034 µg/mL | Combination IC50 (PC3 (prostate); indibulin + estramustine): 0.014 µg/mL | Combination IC50 (PC3 (prostate); indibulin + prednisolone): 0.012 µg/mL | Growth Inhibition (%) [4]: 63% | Growth Inhibition (%) [5]: 63% | IC50 ([6]; Homo sapiens, MCF7, MCF7, single agent (combination study), read-out: Single Agent IC50): 0.013 µg/mL | Single Agent IC84 ([6]; MCF7, single agent (combination study)): 53 ng/mL | Combination IC50 [6, 16]: 0.005 µg/mL | Combination IC60 [6, 16]: 0.0028 µg/mL | Combination IC50 ([6]; MCF7, indibulin + doxorubicin, concentration of the named drug in the combination): 0.011 µg/mL | Combination IC50 [6, 17]: 0.004 µg/mL | Combination IC84 [6, 17]: 10 ng/mL | Combination IC50 [6, 18]: 0.004 µg/mL | Combination IC60 [6, 18]: 0.0064 µg/mL | Combination IC50 [6, 19]: 0.008 µg/mL | Combination IC60 [6, 19]: 0.006 µg/mL | Growth Inhibition (%) ([7]; RENCA, 17.5 mg/kg/d, d. 1-20(5× week), at sacrifice of control group animals): 90% | Number of lung metastases ([7]; oral, daily Day 1-20 (5×/week), Day 21): trend in reduction of number of lung metastases but was not statistically significant | Reduction in tumor volume and weight ([7]; oral, daily Day 1-20 (5×/week), primary tumors on Day 21, FIG. 12): statistically significant | Growth Inhibition (%) [8]: 53% | Inhibition of 3H-colchicine binding [9]: about 40% | Anti-tumor activity in all models ([10]; all models tested): strong and statistically significant anti-tumor activity | Neurotoxicity or loss of body weight ([10]; animals at efficacious doses): no signs of neurotoxicity or loss of body weight | Competition with 3H-colchicine binding [11]: does not compete | Reduction of CA125 level from baseline [12]: 11% | Growth Inhibition (%) [13]: 99.5% | Growth Inhibition (%) [14]: >100%
